Assay results from patent publication US20250332173A1, “COMPOUNDS AND METHODS FOR MODULATING NUCLEIC ACID SPLICING” (REMIX THERAPEUTICS INC., priority 2021, published 2025).
pIC50: −log10 of the molar value. Read-outs that look alike come from different tables or passages of the source.

Assays:
Target C = experiment: RT-qPCR splicing assay panel, Target C canonical junction (CJ) mRNA; type: cell-based, human; settings: Homo sapiens
How it was run: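 Canonical exon-exon junction transcript levels measured by one-step RT-qPCR of cell lysates, normalized to a housekeeping gene (GAPDH, GUSB or PPIA). Cells used were A673 or K562, exposed for 24 h to compound in 11-point, 3-fold series from 10 uM, with final DMSO at or below 0.25%.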

HTT mRNA = experiment: RT-qPCR splicing assay, HTT canonical junction (CJ) and alternative junction (AJ) mRNA; type: cell-based, human; settings: Homo sapiens; for AC50: increase in HTT alternative junction (AJ) mRNA, read-out: HTT AJ AC50
How it was run: (§1)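 Splicing switches were read by TaqMan RT-qPCR on lysates, quantifying exon-exon junctions of the canonical and alternative-exon isoforms. Lysates came from K562 (GAPDH/GUSB reference) or A673 (PPIA reference) cells exposed 24 h to compound in 11 threefold steps from 10 uM, with DMSO ≤0.25%.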

SMN2 mRNA = experiment: RT-qPCR splicing assay, SMN2 canonical junction (CJ) mRNA; type: cell-based, human; settings: Homo sapiens
Description: The expression of a target mRNA was measured by detecting the formation of an exon-exon junction in the canonical transcript (CJ). A compound mediated exon-inclusion event was detected by observing an increase in formation of a new junction with an alternative exon (AJ). Real-time qPCR assays were used to detect these splicing switches and interrogate the potency of various compounds towards different target genes. A high-throughput real time quantitative PCR (RT-qPCR) assay was developed to measure these two isoforms of the mRNA (CJ and AJ) for exemplary genes, such as HTT, SMN2, and MYB, together with a control housekeeping gene, GAPDH or GUSB or PPIA, used for normalization. Briefly, the A673 or K562 cell line was treated with various compounds described herein (e.g., compounds of Formula (I)). After treatment, the levels of the HTT, MYB, or SMN2 mRNA targets were determined from each sample of cell lysate by cDNA synthesis followed by qPCR.
The A673 cell line was cultured in DMEM with 10% FBS. Cells were diluted with full growth media and plated in a 96-well plate (15,000 cells in 100 ul media per well). The plate was incubated at 37° C. with 5% CO2 for 24 hours to allow cells to adhere. An 11-point 3-fold serial dilution of the compounds was made in DMSO then diluted in media in an intermediate plate. Compounds were transferred from the intermediate plate to the cell plate with the top dose at a final concentration of 10 uM in the well. Final DMSO concentration was kept at or below 0.25%. The cell plate was returned to the incubator at 37° C. with 5% CO2 for an additional 24 hours.
The K562 cell line was cultured in IMDM with 10% FBS. For K562, cells were diluted with full growth media and plated in either a 96-well plate (50,000 cells in 50 uL media per well) or a 384-well plate (8,000-40,000 cells in 45 uL media per well). An 11-point 3-fold serial dilution of the compounds were made in DMSO then diluted in media in an intermediate plate. Compound was transferred from the intermediate plate to the cell plate with the top dose at a final concentration of 10 uM in the well. Final DMSO concentration was kept at or below 0.25%. Final volume was 100 uL for 96-well plate and 50 uL for 384-well plate. The cell plate was then placed in an incubator at 37° C. with 5% CO2 for 24 hours.
The cells were then gently washed with 50 uL-100 uL cold PBS before proceeding to addition of lysis buffer. 30 uL-50 uL of room temperature lysis buffer with DNAse I (and optionally RNAsin) was added to each well. Cells were shaken/mixed thoroughly at room temperature for 5-10 minutes for lysis to take place and then 3 uL-5 uL of room temperature stop solution was added and wells were shaken/mixed again. After 2-5 minutes, the cell lysate plate was transferred to ice for RT-qPCR reaction setup. The lysates could also be frozen at −80° C. for later use.
In some cases, a direct lysis buffer was used. An appropriate volume of 3× lysis buffer (10 mM Tris, 150 mM NaCl, 1.5%-2.5% Igepal and 0.1-1 U/uL RNAsin, pH 7.4) was directly added to either K562 or A673 cells in media and mixed by pipetting 3 times. The plates were then incubated at room temperature with shaking/rocking for 20-50 minutes to allow for lysis to take place. After this time, the cell lysate plate was transferred to ice to set up for the RT-qPCR reactions. The lysates could also be frozen at −80° C. for later use.
To set up 10 uL RT-qPCR reactions, cell lysates were transferred to 384-well qPCR plates containing the master mix according to the table below. The plates were sealed, gently vortexed, and spun down before the run. The volumes were adjusted accordingly in some instances where the reaction was carried in 20 uL. The table below summarizes the components of the RT-qPCR reactions:
The RT-qPCR reaction was performed using a QuantStudio (ThermoFisher) under the following fast cycling conditions.

MYB mRNA = experiment: RT-qPCR splicing assay, MYB canonical junction (CJ) and alternative junction (AJ) mRNA; type: cell-based, human; settings: Homo sapiens; for AC50: increase in MYB alternative junction (AJ) mRNA, read-out: MYB AJ AC50
How it was run: as §1

[1] = system: K562 (human chronic myelogenous leukemia) cells; experiment: Cell Titer Glo 2.0 cell viability assay; type: cell-based; settings: Homo sapiens, K562, 72 h, K562 cells, 72 hours, Cell Titer Glo 2.0; read-out: K562 GI50
Description: Compounds described herein were screened for toxicity in K562 (human chronic myelogenous leukemia) cells using a Cell Titer Glo 2.0 assay.
Cells were plated at 500 cells/well (K562 cells) in 45 μL of IMDM supplemented with 1000 FBS in a 384-well opaque plate. Wells containing only medium were used as a blank control. Test compounds (e.g., compounds ofFormula (I), (II), (III), (IV), (V), (VI), (VII), (VIII), and (IX)) were first serially diluted in DMSO then diluted 1:100 with IMDM+10% FBS. The final concentration of DMSO was 0.1% in each well. The cells were incubated for 72 hours at 37° C. and 500 CO2 before assaying with Cell Titer Glo 2.0 reagent.

[2] = Table 5 panel, canonical junction qPCR, compound concentration having 50% response in CJ decrease, read-out: Target C IC50 (decrease in CJ mRNA levels)
[3] = decrease in HTT canonical junction (CJ) mRNA, RT-qPCR, read-out: HTT CJ IC50
[4] = Table 5 panel, canonical junction qPCR, compound concentration having 50% response in CJ decrease, read-out: HTT IC50 (decrease in CJ mRNA levels)
[5] = Table 5 panel, canonical junction qPCR, compound concentration having 50% response in CJ decrease, read-out: SMN2 IC50 (decrease in CJ mRNA levels)
[6] = Table 5 panel, canonical junction qPCR, compound concentration having 50% response in CJ decrease, read-out: MYB IC50 (decrease in CJ mRNA levels)
[7] = decrease in MYB canonical junction (CJ) mRNA, RT-qPCR, read-out: MYB CJ IC50
[8] = canonical junction qPCR panel, Table 5, read-out: Target C (decrease in CJ mRNA levels, IC50)
[9] = canonical junction qPCR panel, Table 5, read-out: HTT (decrease in CJ mRNA levels, IC50)
[10] = canonical junction qPCR panel, Table 5, read-out: SMN2 (decrease in CJ mRNA levels, IC50)
[11] = canonical junction qPCR panel, Table 5, read-out: MYB (decrease in CJ mRNA levels, IC50)

Row | SMILES | pIC50 (Target C; [2]) | pIC50 (HTT mRNA; [3]) | AC50 (HTT mRNA; RT-qPCR) | pIC50 (HTT mRNA; [4]) | pIC50 (SMN2 mRNA; [5]) | pIC50 (MYB mRNA; [6]) | pIC50 (MYB mRNA; [7]) | AC50 (MYB mRNA; RT-qPCR) | pIC50 (Target C; [8]) | pIC50 (HTT mRNA; [9]) | pIC50 (SMN2 mRNA; [10]) | pIC50 (MYB mRNA; [11]) | GI50 [1]
1 | Cc1cn2nc(-c3cc(F)c4c(=O)n(C56CCC(N)(CC5)C6)ccc4c3)cc(C)c2n1 [Compound 655] | 5.00 to 6.00 | 5.00 to 6.00 | 0.1 to 1 µM | 6.00 to 7.00 | > 7.00 | > 7.00 | 6.00 to 7.00 | < 0.1 µM | – | – | – | – | –
2 | Cc1cn2cc(-c3cc(F)c4c(=O)n([C@H]5CC[C@@H](N(C)C)CC5)ccc4c3)cc(F)c2n1 [Compound 656] | 6.00 to 7.00 | 6.00 to 7.00 | 0.1 to 1 µM | 6.00 to 7.00 | > 7.00 | > 7.00 | > 7.00 | < 0.1 µM | – | – | – | – | –
3 | Cn1cc2cc(-c3ccc4c(=O)n(C5CCNCC5)ccc4n3)c(O)c(C#N)c2n1 [Compound 1283] | – | 6.00 to 7.00 | 0.1 to 1 µM | – | – | – | 6.00 to 7.00 | 0.1 to 1 µM | 5.00 to 6.00 | 6.00 to 7.00 | > 7.00 | 6.00 to 7.00 | –
4 | Cc1cn2nc(-c3ccc4c(=O)n([C@@H]5CCNC6(CC6)C5)ncc4n3)cc(C)c2n1 [Compound 1298] | – | > 7.00 | < 0.1 µM | – | – | – | 6.00 to 7.00 | 0.1 to 1 µM | 6.00 to 7.00 | > 7.00 | > 7.00 | 6.00 to 7.00 | –
5 | Cc1c(O)c(-c2ncc3c(=O)n([C@@H]4CCNC(C)(C)C4)ccc3n2)cc2cn(C)nc12 [Compound 1435] | – | 5.00 to 6.00 | 1 to 10 µM | – | – | – | 6.00 to 7.00 | 0.1 to 1 µM | < 5.00 | 5.00 to 6.00 | > 7.00 | 6.00 to 7.00 | 0.1 to 1 µM
6 | Cc1c(O)c(-c2ncc3c(=O)n([C@H]4C[C@H]5COC[C@@H](C4)N5)ccc3n2)cc2cn(C)nc12 [Compound 1472] | – | 5.00 to 6.00 | 1 to 10 µM | – | – | – | 6.00 to 7.00 | 0.1 to 1 µM | 5.00 to 6.00 | 5.00 to 6.00 | 6.00 to 7.00 | 6.00 to 7.00 | 1 to 10 µM
7 | Cc1c(O)c(-c2ncc3c(=O)n([C@H]4CC[C@@H](N)C4)ccc3n2)cc2cn(C)nc12 [Compound 1473, 6-[(1S,3R)-3-aminocyclopentyl]-2-(6-hydroxy-2,7-dimethyl-indazol-5-yl)pyrido[4,3-d]pyrimidin-5-one] | – | < 5.00 | 1 to 10 µM | – | – | – | 6.00 to 7.00 | 0.1 to 1 µM | 5.00 to 6.00 | 5.00 to 6.00 | > 7.00 | 6.00 to 7.00 | 0.1 to 1 µM
8 | C[C@@H]1C[C@H](n2ccc3nc(-c4cc5cn(C)nc5cc4O)ncc3c2=O)CCN1 [Compound 1474] | – | 5.00 to 6.00 | 1 to 10 µM | – | – | – | 5.00 to 6.00 | 0.1 to 1 µM | 5.00 to 6.00 | 5.00 to 6.00 | > 7.00 | 6.00 to 7.00 | 0.1 to 1 µM
9 | Cc1cn2cc(-c3ccc4c(=O)n([C@@H]5CCN[C@H](C)C5)ccc4n3)cc(F)c2n1 [Compound 1475] | – | < 5.00 | 1 to 10 µM | – | – | – | 5.00 to 6.00 | 1 to 10 µM | 5.00 to 6.00 | 5.00 to 6.00 | 6.00 to 7.00 | 5.00 to 6.00 | 1 to 10 µM
10 | CN[C@H]1CC[C@@H](n2ccc3nc(-c4cc5cn(C)nc5c(C)c4O)ncc3c2=O)C1 [Compound 1478, 2-(6-hydroxy-2,7-dimethyl-indazol-5-yl)-6-[(1R,3S)-3-(methylamino)cyclopentyl]pyrido[4,3-d]pyrimidin-5-one] | – | 5.00 to 6.00 | 1 to 10 µM | – | – | – | 6.00 to 7.00 | 0.1 to 1 µM | 5.00 to 6.00 | 5.00 to 6.00 | > 7.00 | 6.00 to 7.00 | 0.1 to 1 µM
11 | Cc1cn2cc(-c3ncc4c(=O)n([C@@H]5C[C@@H](C)N[C@@H](C)C5)ccc4n3)cc(F)c2n1 [Compound 1480, 6-[(2R,6S)-2,6-dimethyl-4-piperidyl]-2-(8-fluoro-2-methyl-imidazo[1,2-a]pyridin-6-yl)pyrido[4,3-d]pyrimidin-5-one] | – | 6.00 to 7.00 | 0.1 to 1 µM | – | – | – | 6.00 to 7.00 | 0.1 to 1 µM | 6.00 to 7.00 | 6.00 to 7.00 | 6.00 to 7.00 | 6.00 to 7.00 | 0.1 to 1 µM
